For one data set, the system named is HK-2 cell line. Kind of data set: In vitro renal cell toxicity assay (resazurin reduction). On the procedure:
MICs were determined as described herein. HK-2 cell IC50 values were determined as described herein. Values are reported relative to Polymyxin B.
In general terms: The colour change of resazurin is a common sign of viable cells or microbes.

For data set [1], the system named is A. baumannii.
Data set [2] concerns E. coli.
Data set [3] has as its system K. pneumoniae.
Data set [4] deals with A. baumannii. Nature of the data set: MIC in the presence of […] of rifampicin. Format: cell-based, Acinetobacter baumannii. Here is the method: (§1) The inoculum was prepared by making a direct suspension of isolated colonies (selected from an 18-24 hour Mueller-Hinton agar plate) adjusted to the 0.5 McFarland standard. […] The assays were performed in duplicate. […] In cases where the duplicate values varied by less than 2-fold, the lower of the two values is reported. If a variation of greater than 2-fold was observed, the assay was considered non-valid. Several of the compounds were subjected to multiple tests, and where this is the case, the MIC reflects the modal value obtained.

For data set [5], the system named is K. pneumoniae. Kind of data set: MIC in the presence of a fixed concentration (2 μg/mL) of Rifampicin. Format: cell-based, Klebsiella pneumoniae. Particulars: Rifampicin 2 μg/mL, Table 5D. Here is the method: as §1
Data set [6] concerns E. coli. The description is as above. Format: cell-based, Escherichia coli. The settings on record: Rifampicin 2 μg/mL, Table 5D.
Data set [7] relates to E. coli strains with elevated MICs to Polymyxin B. Nature of the data set: MIC against strains with elevated MICs to Polymyxin B. The class given is cell-based, Escherichia coli. Particulars: Table 6D. Put shortly:
(§2)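 Inoculum was a direct suspension of colonies from an 18-24 hour Mueller-Hinton agar plate, adjusted to the 0.5 McFarland standard. Duplicate assays; the lower value was reported when duplicates differed by less than 2-fold, otherwise the run was invalid. Repeat-tested compounds give the modal MIC.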

The subject of data set [8] is P. aeruginosa strains with elevated MICs to Polymyxin B. The data set is described as above. Particulars: Table 6D. Format: cell-based, Pseudomonas aeruginosa. The essentials: as §2
Data set [9] relates to A. baumanii strains with elevated MICs to Polymyxin B. Described as above. The class given is cell-based, Acinetobacter baumannii. Particulars: Table 6D. The essentials: as §2
Data set [10] deals with K. pneumoniae strains with elevated MICs to Polymyxin B. Described as above. The settings on record: Table 6D. Format: cell-based, Klebsiella pneumoniae. Put shortly: as §2
[11] abbreviates: absence of a second agent, Table 6B.

In brackets after ≈: the same amount, converted by molar mass. Read-outs that look alike come from different tables or passages of the source. Numbered stars: 1 amine (or outer) side, 2 acyl side, 3 side chain; on linkers, the order of the positions; unused ones are H or OH. Bridge positions count the residues as written; N and C are the ends. Square brackets hold non-standard residues; d marks the D form. Peptide text beside a SMILES is read from it. X7 = CC(C)CN([C@@H](CN)C(=O)[*:2])[*:1]; aThr = C[C@H](O)[C@H](N)C(=O)O; Dab = NCC[C@H](N)C(=O)O Bounds are passed on as bounds.

The MIC is the lowest concentration that inhibits growth of the organism. A low value points to a more susceptible organism.

With “2-aminomethyl- 4-methyl pentanoyl polymyxin E nonapeptide [Example D53]”, in the data set with P. aeruginosa (sole activity, Table 6C), the “MIC, P. aeruginosa ATCC 27853” value came out at 0.5 micrograms/mL and the “MIC, P. aeruginosa CCUG 59347” value is listed as 1 micrograms/mL. Moreover, the “HK-2 IC50 rel to PMB*” value with HK-2 cell line amounted to 18.2. In addition, in the data set on A. baumannii [1] (sole activity, Table 6C), the “MIC, A. baumannii ATCC BAA-747” value turned out to be 1 micrograms/mL and the “MIC, A. baumannii NCTC 13424” value was found to be 2 micrograms/mL. Besides, in the data set on E. coli [2] (sole activity, Table 6C), the “MIC, E. coli ATCC 25922” value came out at 1 micrograms/mL and the “MIC, E. coli NCTC 13441” value was determined as 1 micrograms/mL. Also, in the data set on K. pneumoniae [3] (sole activity, Table 6C), the “MIC, K. pneumoniae ATCC 4352” value is 0.25 micrograms/mL and the “MIC, K. pneumoniae ATCC BAA-2146” value is 1 micrograms/mL.

Consider “3-Amino-2- benzylpropanoylpoly- myxin B nonapeptide [Example D5]”, for which, in the data set with P. aeruginosa (setting [11]), the “MIC, P. aeruginosa ATCC 27853” value is reported as 1 micrograms/mL and the “MIC, P. aeruginosa CCUG 59347” value is recorded as more than 8 micrograms/mL. The “MIC in combination with Rifampicin, A. baumannii ATCC BAA-747” value in the data set with A. baumannii [4] (A. baumannii ATCC BAA-747, Table 5D) amounted to 0.25 micrograms/mL. Moreover, the “MIC in combination with Rifampicin, A. baumannii NCTC 13424” value in the data set with A. baumannii [4] (A. baumannii NCTC 13424, Table 5D) is not above 0.015 micrograms/mL. For the same compound, the “MIC in combination with Rifampicin, K. pneumoniae ATCC 4352” value with K. pneumoniae [5] (K. pneumoniae ATCC 4352) was 0.03 micrograms/mL. Moreover, the “MIC in combination with Rifampicin, K. pneumoniae ATCC BAA-2146” value in the data set on K. pneumoniae [5] (K. pneumoniae ATCC BAA-2146) is on record as 0.25 micrograms/mL. Besides, in the data set with HK-2 cell line, the “HK-2 IC50 rel to PMB” value is given as 15.3. Besides, in the data set on A. baumannii [1] (setting [11]), the “MIC, A. baumannii ATCC BAA-747” value was more than 8 micrograms/mL and the “MIC, A. baumannii NCTC 13424” value is more than 8 micrograms/mL. The “MIC in combination with Rifampicin, E. coli ATCC 25922” value with E. coli [6] (E. coli ATCC 25922) was found to be 0.03 micrograms/mL. Moreover, the “MIC in combination with Rifampicin, E. coli NCTC 13441” value in the data set with E. coli [6] (E. coli NCTC 13441) worked out at 0.06 micrograms/mL. Further, in the data set with E. coli [2] (setting [11]), the “MIC, E. coli ATCC 25922” value stood at 8 micrograms/mL and the “MIC, E. coli NCTC 13441” value was more than 8 micrograms/mL. In the data set on K. pneumoniae [3] (setting [11]), the “MIC, K. pneumoniae ATCC 4352” value is 8 micrograms/mL and the “MIC, K. pneumoniae ATCC BAA-2146” value is reported as more than 8 micrograms/mL.

Consider `CC(C)CC1CNCC1C(=O)N[C@H](C(=O)N[C@@H](CCN)C(=O)N[C@H]1CCNC(=O)[C@H]([C@@H](C)O)NC(=O)[C@H](CCN)NC(=O)[C@H](CCN)NC(=O)[C@H](CC(C)C)NC(=O)[C@@H](Cc2ccccc2)NC(=O)[C@H](CCN)NC1=O)[C@H](C)O` (single isomer, unassigned) [Example D39, trans-4-(2-methylpropyl) pyrrolidine-3-carbonyl polymyxin B nonapeptide], for which the “HK-2 IC50 rel to PMB” value in the data set with HK-2 cell line amounted to 5.4.

Consider `CC(C)CN[C@@H](CN)C(=O)N[C@H](C(=O)N[C@@H](CCN)C(=O)N[C@H]1CCNC(=O)[C@H]([C@@H](C)O)NC(=O)[C@H](CCN)NC(=O)[C@H](CCN)NC(=O)[C@H](CC(C)C)NC(=O)[C@@H](Cc2ccccc2)NC(=O)[C@H](CCN)NC1=O)[C@H](C)O` [Example D51, (S)-2-(2-methylpropylamino) 3-aminopropanoyl polymyxin B nonapeptide] (H-[X7][aThr][Dab][Dab][Dab][dF]L[Dab][Dab]T; lactam 4-C), for which the “HK-2 IC50 rel to PMB” value with HK-2 cell line is given as 34. Further, the results for the MIC with A. baumannii [1] and against E. coli [2] were 1 µg/mL (≈ 0.905 µM) and 0.5 µg/mL (≈ 0.452 µM), respectively.

Turning to “(S)-1-(2- methylpropyl)- piperazine-2- carbonyl polymyxin E nonapeptide [Example D56]”, in the data set with P. aeruginosa (sole activity, Table 6C), the “MIC, P. aeruginosa ATCC 27853” value is given as 0.5 micrograms/mL and the “MIC, P. aeruginosa CCUG 59347” value is recorded as 1 micrograms/mL. Further, the “HK-2 IC50 rel to PMB*” value with HK-2 cell line was determined as 22. In the data set with A. baumannii [1] (sole activity, Table 6C), the “MIC, A. baumannii ATCC BAA-747” value amounted to 0.5 micrograms/mL and the “MIC, A. baumannii NCTC 13424” value amounted to 0.5 micrograms/mL. Further, in the data set on E. coli [2] (sole activity, Table 6C), the “MIC, E. coli ATCC 25922” value is on record as 0.25 micrograms/mL and the “MIC, E. coli NCTC 13441” value worked out at 0.25 micrograms/mL. Moreover, in the data set on K. pneumoniae [3] (sole activity, Table 6C), the “MIC, K. pneumoniae ATCC 4352” value is on record as 0.125 micrograms/mL and the “MIC, K. pneumoniae ATCC BAA-2146” value came to 0.25 micrograms/mL.

On to “trans-4-(2- methylpropyl) pyrrolidine-3- carbonyl-L-Thr- L-Dap-polymyxin B heptapeptide [Example D68]”, for which the “MIC E. coli 058” value in data set [7] (strain 058, elevated MIC to Polymyxin B) stood at 8 micrograms/mL. The “MIC E. coli 059” value in [7] (strain 059, elevated MIC to Polymyxin B) was 16 micrograms/mL. The “MIC E. coli 060” value in data set [7] (strain 060, elevated MIC to Polymyxin B) is 8 micrograms/mL. In data set [7] (strain 061, elevated MIC to Polymyxin B), the “MIC E. coli 061” value turned out to be 32 micrograms/mL. For the same compound, in the data set with P. aeruginosa (sole activity, Table 6C), the “MIC, P. aeruginosa ATCC 27853” value stood at 0.5 micrograms/mL and the “MIC, P. aeruginosa CCUG 59347” value is recorded as 0.5 micrograms/mL. Moreover, the “MIC P. aeruginosa 065” value in data set [8] (strain 065, elevated MIC to Polymyxin B) turned out to be 16 micrograms/mL. Moreover, in [8] (strain 066, elevated MIC to Polymyxin B), the “MIC P. aeruginosa 066” value amounted to 16 micrograms/mL. The “MIC P. aeruginosa 067” value in [8] (strain 067, elevated MIC to Polymyxin B) was more than 256 micrograms/mL. Also, in data set [9] (strain 053, elevated MIC to Polymyxin B), the “MIC A. baumannii 053” value is more than 256 micrograms/mL. The “MIC A. baumannii 056” value in data set [9] (strain 056, elevated MIC to Polymyxin B) was 128 micrograms/mL. The “MIC A. baumannii 068” value in data set [9] (strain 068, elevated MIC to Polymyxin B) was 16 micrograms/mL. Besides, the “MIC K. pneumoniae 062” value in data set [10] (strain 062, elevated MIC to Polymyxin B) is listed as 64 micrograms/mL. In addition, the “MIC K. pneumoniae 063” value in data set [10] (strain 063, elevated MIC to Polymyxin B) is listed as 64 micrograms/mL. Further, the “MIC K. pneumoniae 064” value in data set [10] (strain 064, elevated MIC to Polymyxin B) amounted to 16 micrograms/mL. In addition, the “HK-2 IC50 rel to PMB*” value in the data set on HK-2 cell line amounted to 5.3. For the same compound, in the data set with A. baumannii [1] (sole activity, Table 6C), the “MIC, A. baumannii ATCC BAA-747” value is 0.25 micrograms/mL and the “MIC, A. baumannii NCTC 13424” value was 0.5 micrograms/mL. Further, in the data set on E. coli [2] (sole activity, Table 6C), the “MIC, E. coli ATCC 25922” value is listed as 0.25 micrograms/mL and the “MIC, E. coli NCTC 13441” value worked out at 0.25 micrograms/mL. Further, the “MIC, K. pneumoniae ATCC 4352” value in the data set on K. pneumoniae [3] (sole activity, Table 6C) is 0.125 micrograms/mL.

With “trans-4-(2- methylpropyl) pyrrolidine-3-carbonyl polymyxin B nonapeptide [Example D38]”, in the data set with P. aeruginosa (setting [11]), the “MIC, P. aeruginosa ATCC 27853” value amounted to 1 micrograms/mL and the “MIC, P. aeruginosa CCUG 59347” value amounted to 2 micrograms/mL. Also, in the data set with HK-2 cell line, the “HK-2 IC50 rel to PMB” value is 6.3. Besides, in the data set on A. baumannii [1] (setting [11]), the “MIC, A. baumannii ATCC BAA-747” value is listed as more than 8 micrograms/mL and the “MIC, A. baumannii NCTC 13424” value is reported as 2 micrograms/mL. In the data set with E. coli [2] (setting [11]), the “MIC, E. coli ATCC 25922” value is reported as 8 micrograms/mL and the “MIC, E. coli NCTC 13441” value was determined as 8 micrograms/mL. In the data set with K. pneumoniae [3] (setting [11]), the “MIC, K. pneumoniae ATCC 4352” value worked out at 4 micrograms/mL and the “MIC, K. pneumoniae ATCC BAA-2146” value came out at 8 micrograms/mL.
